Experimental data published in patent US9097673B2, “Processes and kits for determining multi-drug resistance of cells” (ENZO LIFE SCIENCES, INC., priority 2010, dated 2015).
Where “and” joins values, the source holds several entries; their conditions need not be identical. Equal entries are not always repeated. Where two headings read alike, the source gives them in different places.

Key:
HeLa cell line = test: Dye uptake flow cytometry MDR assay; type: cell-based, human
CHO K1 cell line = test: Dye uptake flow cytometry MDR assay; type: cell-based, hamster;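 further: flow cytometry of dye-loaded cells, Kolmogorov-Smirnov D value (0 to 1.0) comparing fluorescence with versus without inhibitor, made negative when the uninhibited control was brighter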
A549 cell line = test: Dye uptake flow cytometry MDR assay; type: cell-based, human
[1] = system: U-2 OS cells expressing GFP; test: Multiplexed MDR detection by flow cytometry (dye uptake, with PI); type: cell-based, human; details: U-2 OS GFP; for R4 + PI compens, MAF / R4 + PI, MAF: Rhod-4 AM + PI; for R4 + PI compens, MAF: compensated; for R4 + PI, MAF: uncompensated; for R4, MAF: Rhod-4 AM probe alone;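 on F8 + PI, MAF: MAF computed as 100 × (MFI with inhibitor − MFI without) / MFI with inhibitor, after 5 min inhibitor pre-incubation then 30 min dye loading at 37 °C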;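 on F8, MAF: MAF computed as 100 × (MFI with inhibitor − MFI without) / MFI with inhibitor, after 5 min inhibitor pre-incubation then 30 min dye loading at 37 °C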
U-2 OS cells = test: as above; type: cell-based, human; details: for F8 + PI, MAF: Fluo-8 AM + PI; for F8, MAF: Fluo-8 AM probe alone; for R4 + PI compens, MAF / R4 + PI, MAF: Rhod-4 AM + PI; for R4 + PI compens, MAF: compensated; for R4 + PI, MAF: uncompensated; for R4, MAF: Rhod-4 AM probe alone
[2] = HeLa, dye uptake, average of three representative experiments (Table 6)
[3] = CHO K1, dual probes Rhod-4 AM (FL2) + CMFDA (FL1)
[4] = CHO K1, dye uptake, average of three representative experiments (Table 6)
[5] = CHO K1, triple probes CMFDA (FL1) + Rhod-4 AM (FL2) + Pheophorbide A (FL3)
[6] = A549, dye uptake, average of three representative experiments (Table 6)
[7] = CHO K1, dual probes Rhod-4 AM (FL2) + DiOC2(3) (FL1)
[8] = CHO K1, triple probes DiOC2(3) (FL1) + Rhod-4 AM (FL2) + Pheophorbide A (FL3)
[9] = CHO K1, dye uptake, average of three independent experiments (Table 10)
[10] = A549, dye uptake, average of three independent experiments (Table 10)
[11] = CHO K1, Fluo-8 AM + propidium iodide, uncompensated data
[12] = CHO K1, Fluo-8 AM probe alone, uncompensated data
[13] = CHO K1, Rhod-4 AM + propidium iodide, compensated data
[14] = CHO K1, Rhod-4 AM + propidium iodide, uncompensated data
[15] = CHO K1, Rhod-4 AM probe alone, uncompensated data
[16] = CHO K1, dual probes Fluo-8 AM (FL1) + Pheophorbide A (FL3)
[17] = CHO K1, dual probes Rhod-4 AM (FL2) + Pheophorbide A (FL3)

## CC(=O)Oc1ccc2c(c1)Oc1cc(OC(C)=O)ccc1C21OC(=O)c2cc(CCl)ccc21 [CMFDA, chloromethylfluorescein diacetate]
HeLa cell line; [2]
  D-value, Fumitremorgan C: 0.12
  D-value, Probenecid: 0.03
  D-value, Verapamil: 0
CHO K1 cell line; [3]
  D-values Post Inhibitor Treatment (compared to uninhibited cells), CsA: 0.49
  D-values Post Inhibitor Treatment (compared to uninhibited cells), FTC: 0.06
  D-values Post Inhibitor Treatment (compared to uninhibited cells), MK-571: 0.91
  D-values Post Inhibitor Treatment (compared to uninhibited cells), Verapamil: 0.1
CHO K1 cell line; [4]
  D-value, Fumitremorgan C: 0.09
  D-value, Probenecid: 0.7
  D-value, Verapamil: 0.19
CHO K1 cell line; [5]
  D-values Post Inhibitor Treatment (compared to uninhibited cells), CsA: 0.47
  D-values Post Inhibitor Treatment (compared to uninhibited cells), FTC: 0.14
  D-values Post Inhibitor Treatment (compared to uninhibited cells), MK-571: 0.89
  D-values Post Inhibitor Treatment (compared to uninhibited cells), Verapamil: 0.10
A549 cell line; [6]
  D-value, Fumitremorgan C: 0.21
  D-value, Probenecid: 0.29
  D-value, Verapamil: 0.04

## CCN1C(=CC=Cc2oc3ccccc3[n+]2CC)Oc2ccccc21.[I-] [DiOC2(3), 3,3′-diethyloxacarbocyanine iodide]
HeLa cell line
  D-value, Fumitremorgan C: 0.07
HeLa cell line; [2]
  D-value, Probenecid: 0.06
  D-value, Verapamil: 0
CHO K1 cell line
  D-value, Fumitremorgan C: 0
CHO K1 cell line; [7]
  D-values Post Inhibitor Treatment (compared to uninhibited cells), CsA: 0.94
  D-values Post Inhibitor Treatment (compared to uninhibited cells), FTC: 0.16
  D-values Post Inhibitor Treatment (compared to uninhibited cells), MK-571: 0.13
  D-values Post Inhibitor Treatment (compared to uninhibited cells), Verapamil: 0.96
CHO K1 cell line; [4]
  D-value, Probenecid: 0.01
  D-value, Verapamil: 0.96
CHO K1 cell line; [8]
  D-values Post Inhibitor Treatment (compared to uninhibited cells), CsA: 0.98
  D-values Post Inhibitor Treatment (compared to uninhibited cells), FTC: 0.11
  D-values Post Inhibitor Treatment (compared to uninhibited cells), MK-571: 0.13
  D-values Post Inhibitor Treatment (compared to uninhibited cells), Verapamil: 0.98
A549 cell line
  D-value, Fumitremorgan C: 0.03
A549 cell line; [6]
  D-value, Probenecid: 0
  D-value, Verapamil: 0.07

## COc1cccc2c1C(=O)c1c(O)c3c(c(O)c1C2=O)C[C@@](O)(C(=O)CO)C[C@@H]3O[C@H]1C[C@H](N)[C@H](O)[C@H](C)O1 [Doxorubicin, doxorubicin]
CHO K1 cell line; [9]
  D-value, Cyclosporine A: 0.42
  D-value, FTC: 0.22
  D-value, MK-571: 0.35
  D-value, Novobiocin: 0.32
  D-value, Verapamil: 0.27
A549 cell line; [10]
  D-value, Cyclosporine A: 0.14
  D-value, FTC: 0.18
  D-value, MK-571: 0.24
  D-value, Novobiocin: 0.28
  D-value, Verapamil: 0.06

## COc1ccc2c3c([nH]c2c1)[C@H](C=C(C)C)N1C(=O)[C@@H]2CCCN2C(=O)[C@@H]1C3 [FTC, fumitremorgin C]
[1]
  R4 + PI compens, MAF: 6.2
  R4 + PI, MAF: 25.7
  R4, MAF: 15.0
U-2 OS cells
  F8 + PI, MAF: −6.3
  F8, MAF: 5.0
  R4 + PI compens, MAF: 12.6
  R4 + PI, MAF: −9.3
  R4, MAF: 9.9

## CN(C)C(=O)CCSC(SCCC(=O)O)c1cccc(/C=C/c2ccc3ccc(Cl)cc3n2)c1 (stereo not shown) [MK-571]
[1]
  R4 + PI compens, MAF: 43.3
  R4 + PI, MAF: 51.9
  R4, MAF: 49.6
CHO K1 cell line; [11]
  F8 + PI, D-values: 0.92
CHO K1 cell line; [12]
  Fluo-8 ™, D: 0.89
CHO K1 cell line; [13]
  R4 + PI, D-values: 0.94
CHO K1 cell line; [14]
  R4 + PI, D-values: 0.95
CHO K1 cell line; [15]
  Rhod4 ™ (D-values): .94
U-2 OS cells
  F8 + PI, MAF: 52.9
  F8, MAF: 65.4
  R4 + PI compens, MAF: 54.5
  R4 + PI, MAF: 49.7
  R4, MAF: 62.8

## O=C1c2c(O)ccc(O)c2C(=O)c2c(NCCNCCO)ccc(NCCNCCO)c21 [Mitoxantrone, mitoxantrone]
CHO K1 cell line; [9]
  D-value, Cyclosporine A: 0.34
  D-value, FTC: 0.21
  D-value, MK-571: 0.18
  D-value, Novobiocin: 0.22
  D-value, Verapamil: 0.42
A549 cell line; [10]
  D-value, Cyclosporine A: 0.27
  D-value, FTC: 0.28
  D-value, MK-571: 0.37
  D-value, Novobiocin: 0.28
  D-value, Verapamil: 0.12

## CO[C@@H]1[C@@H](OC(N)=O)[C@@H](O)[C@H](Oc2ccc3c(O)c(NC(=O)c4ccc(O)c(CC=C(C)C)c4)c(=O)oc3c2C)OC1(C)C [Novobiocin, novobiocin]
[1]
  R4 + PI compens, MAF: 2.8
  R4 + PI, MAF: 27.9
  R4, MAF: 17.9
CHO K1 cell line; [11]
  F8 + PI, D-values: 0.61
CHO K1 cell line; [12]
  Fluo-8 ™, D: 0.54
CHO K1 cell line; [13]
  R4 + PI, D-values: 0.66
CHO K1 cell line; [14]
  R4 + PI, D-values: 0.7
CHO K1 cell line; [15]
  Rhod4 ™ (D-values): .64
U-2 OS cells
  F8 + PI, MAF: 12.3
  F8, MAF: 17.9
  R4 + PI compens, MAF: 15.1
  R4 + PI, MAF: 10.7
  R4, MAF: 18.7

## C=Cc1c(C)c2cc3nc(c4c5[nH]c(cc6nc(cc1[nH]2)C(C)=C6CC)c(C)c5C(=O)[C@@H]4C(=O)OC)[C@@H](CCC(=O)O)[C@@H]3C [Pheophorbide A, pheophorbide A]
HeLa cell line; [2]
  D-value, Fumitremorgan C: 0
  D-value, Probenecid: 0
  D-value, Verapamil: 0
CHO K1 cell line; [16]
  D-values Post Inhibitor Treatment (compared to uninhibited cells), CsA: 0.25
  D-values Post Inhibitor Treatment (compared to uninhibited cells), FTC: 0.33
  D-values Post Inhibitor Treatment (compared to uninhibited cells), MK-571: 0.15
  D-values Post Inhibitor Treatment (compared to uninhibited cells), Verapamil: 0.14
CHO K1 cell line; [17]
  D-values Post Inhibitor Treatment (compared to uninhibited cells), CsA: 0.25
  D-values Post Inhibitor Treatment (compared to uninhibited cells), FTC: 0.34
  D-values Post Inhibitor Treatment (compared to uninhibited cells), MK-571: 0.14
  D-values Post Inhibitor Treatment (compared to uninhibited cells), Verapamil: 0.11
CHO K1 cell line; [4]
  D-value, Fumitremorgan C: 0.25
  D-value, Probenecid: 0.03
  D-value, Verapamil: 0.02
CHO K1 cell line; [5]
  D-values Post Inhibitor Treatment (compared to uninhibited cells), CsA: 0.20
  D-values Post Inhibitor Treatment (compared to uninhibited cells), FTC: 0.27
  D-values Post Inhibitor Treatment (compared to uninhibited cells), MK-571: 0.09
  D-values Post Inhibitor Treatment (compared to uninhibited cells), Verapamil: 0.18
CHO K1 cell line; [8]
  D-values Post Inhibitor Treatment (compared to uninhibited cells), CsA: 0.4
  D-values Post Inhibitor Treatment (compared to uninhibited cells), FTC: 0.41
  D-values Post Inhibitor Treatment (compared to uninhibited cells), MK-571: 0.13
  D-values Post Inhibitor Treatment (compared to uninhibited cells), Verapamil: 0.17
A549 cell line; [6]
  D-value, Fumitremorgan C: 0.35
  D-value, Probenecid: 0.16
  D-value, Verapamil: 0.16

## CCCN(CCC)S(=O)(=O)c1ccc(C(=O)O)cc1 [Probenecid, probenecid]
[1]
  R4 + PI compens, MAF: 38.5
  R4 + PI, MAF: 47.7
  R4, MAF: 34.0
U-2 OS cells
  F8 + PI, MAF: 23.1
  F8, MAF: 57.5
  R4 + PI compens, MAF: 42.4
  R4 + PI, MAF: 24.0
  R4, MAF: 41.2

## COc1ccc(CCN(C)CCCC(C#N)(c2ccc(OC)c(OC)c2)C(C)C)cc1OC (stereo not shown) [Verapamil, verapamil]
[1]
  R4 + PI compens, MAF: 38.0
  R4 + PI, MAF: 41.3
  R4, MAF: 30.4
CHO K1 cell line
  F8 + PI, D-values: 0.94
  Fluo-8 ™, D: 0.92
  R4 + PI, D-values: 0.96 and 0.95
  Rhod4 ™ (D-values): 0.94
U-2 OS cells
  F8 + PI, MAF: 33.0
  F8, MAF: 63.4
  R4 + PI compens, MAF: 54.1
  R4 + PI, MAF: 35.8
  R4, MAF: 42.5
